Key:
Assay type in all cases: in vivo
[1] = test system: Plutella xylostella (diamond back moth); experiment: Example B3: Plutella xylostella, treated artificial diet; details: 120 h, application rate 200 ppm, L2 larvae, 5 days after infestation, read-out: effect in at least one of the two categories (mortality or growth inhibition)
Experimental: 24-well microtiter plates with artificial diet were treated with aqueous test solutions prepared from 10,000 ppm DMSO stock solutions by pipetting. After drying, the plates were infested with L2 larvae (10 to 15 per well). The samples were assessed for mortality and growth inhibition in comparison to untreated samples 5 days after infestation.

[2] = test system: Euschistus heros (neotropical brown stink bug); experiment: Example B6: Euschistus heros, sprayed soybean leaf; details: 120 h, application rate 200 ppm, N-2 nymphs, 5 days after infestation
From the text: Soybean leaf on agar in 24-well microtiter plates were sprayed with aqueous test solutions prepared from 10,000 ppm DMSO stock solutions. After drying the leaf were infested with N-2 nymphs.

[3] = test system: Tetranychus urticae (two-spotted spider mite); experiment: Example B8: Tetranychus urticae, sprayed bean leaf discs; details: foliar, 192 h, application rate 200 ppm, mixed population (mobile stages), 8 days after infestation
From the text: Bean leaf discs on agar in 24-well microtiter plates were sprayed with aqueous test solutions prepared from 10,000 ppm DMSO stock solutions. After drying the leaf discs were infested with a mite population of mixed ages.

[4] = test system: Diabrotica balteata (corn root worm); experiment: Example B4: Diabrotica balteata, sprayed maize sprouts; details: 96 h, application rate 200 ppm, L2 larvae, 4 days after infestation, read-out: effect in at least one of the two categories (mortality or growth inhibition)
Experimental: Maize sprouts, placed on an agar layer in 24-well microtiter plates were treated with aqueous test solutions prepared from 10,000 ppm DMSO stock solutions by spraying. After drying, the plates were infested with L2 larvae (6 to 10 per well). The samples were assessed for mortality and growth inhibition in comparison to untreated samples 4 days after infestation.

[5] = test system: Spodoptera littoralis (Egyptian cotton leaf worm); experiment: Example B2: Spodoptera littoralis, systemic test via lettuce roots in agar; details: 144 h, application rate 12.5 ppm, Spodoptera eggs, 6 days after infestation, read-out: control in at least one of the three categories (mortality, anti-feedancy or growth inhibition)
[6] = test system: Myzus persicae (green peach aphid); experiment: Example B5: Myzus persicae, sprayed sunflower leaf discs; details: foliar, 144 h, application rate 200 ppm, aphid population of mixed ages, 6 days after infestation
Experimental: Sunflower leaf discs were placed on agar in a 24-well microtiter plate and sprayed with aqueous test solutions prepared from 10,000 ppm DMSO stock solutions. After drying, the leaf discs were infested with an aphid population of mixed ages. The samples were assessed for mortality 6 days after infestation.

[7] = test system: Spodoptera littoralis (Egyptian cotton leaf worm); experiment: Example B1: Spodoptera littoralis, sprayed cotton leaf discs; details: foliar, 72 h, application rate 200 ppm, L1 larvae, 3 days after infestation, read-out: control in at least one of the three categories (mortality, anti-feedancy or growth inhibition)
[8] = test system: Myzus persicae (green peach aphid); experiment: Example B7: Myzus persicae, systemic test with roots of pea seedlings in test solution; details: 144 h, test rate 24 ppm, aphid population of mixed ages, 6 days
From the text: Roots of pea seedlings infested with an aphid population of mixed ages were placed directly in the aqueous test solutions prepared from 10,000 DMSO stock solutions.

[9] = test system: Bemisia tabaci (cotton white fly); experiment: Example B10: Bemisia tabaci, sprayed cotton leaf discs; details: foliar, 144 h, application rate 200 ppm, adult white flies, 6 days after incubation
Experimental: Cotton leaf discs were placed on agar in 24-well microtiter plates and sprayed with aqueous test solutions prepared from 10,000 ppm DMSO stock solutions. After drying the leaf discs were infested with adult white flies. The samples were checked for mortality 6 days after incubation.

CCS(=O)(=O)c1cc(-c2ccc(C(F)(F)F)cc2)cnc1C(=O)/N=c1\sc(C(F)(F)C(F)(F)F)nn1C [Compound P8]
≥ 80%: percent effect (mortality or growth inhibition) at 200 ppm [1] | mortality at 200 ppm [2] | mortality at 200 ppm [3] | percent effect (mortality or growth inhibition) at 200 ppm [4] | percent control (mortality, anti-feedant effect or growth inhibition) at 12.5 ppm [5] | mortality at 200 ppm [6] | percent control (mortality, anti-feedant effect or growth inhibition) at 200 ppm [7]

CCS(=O)(=O)c1cc(-c2ncccn2)cnc1C(=O)/N=c1\ccc(SC(F)(F)F)cn1C [Compound P17, (N)-3-ethylsulfonyl-N-[1-methyl-5-(trifluoromethylsulfanyl)-2-pyridylidene]-5-pyrimidin-2-yl-pyridine-2-carboxamide]
≥ 80%: percent effect (mortality or growth inhibition) at 200 ppm [1] | mortality at 200 ppm [2] | mortality at 24 ppm [8] | percent effect (mortality or growth inhibition) at 200 ppm [4] | percent control (mortality, anti-feedant effect or growth inhibition) at 12.5 ppm [5] | mortality at 200 ppm [6] | percent control (mortality, anti-feedant effect or growth inhibition) at 200 ppm [7]

CCS(=O)(=O)c1cc(C2(C#N)CC2)cnc1C(=O)/N=c1\sc(C(F)(F)C(F)(F)F)nn1C [Compound P20, (N)-5-(1-cyanocyclopropyl)-3-ethylsulfonyl-N-[3-methyl-5-(1,1,2,2,2-pentafluoroethyl)-1,3,4-thiadiazol-2-ylidene]pyridine-2-carboxamide]
≥ 80%: percent effect (mortality or growth inhibition) at 200 ppm [1] | mortality at 200 ppm [2] | percent effect (mortality or growth inhibition) at 200 ppm [4] | mortality at 200 ppm [9] | percent control (mortality, anti-feedant effect or growth inhibition) at 12.5 ppm [5] | mortality at 200 ppm [6] | percent control (mortality, anti-feedant effect or growth inhibition) at 200 ppm [7]

CCS(=O)(=O)c1cc(-c2cncs2)cnc1C(=O)/N=c1\sc(C(F)(F)F)nn1C [Compound P39]
≥ 80%: percent effect (mortality or growth inhibition) at 200 ppm [4] | mortality at 200 ppm [9] | percent control (mortality, anti-feedant effect or growth inhibition) at 200 ppm [7]

CCS(=O)(=O)c1cc(-c2ncccn2)cnc1C(=O)/N=c1\sc(C(F)(F)F)nn1C [Compound P42]
≥ 80%: percent effect (mortality or growth inhibition) at 200 ppm [1] | mortality at 200 ppm [2] | mortality at 24 ppm [8] | percent effect (mortality or growth inhibition) at 200 ppm [4] | percent control (mortality, anti-feedant effect or growth inhibition) at 12.5 ppm [5] | mortality at 200 ppm [6] | percent control (mortality, anti-feedant effect or growth inhibition) at 200 ppm [7]

CCS(=O)(=O)c1cc(-c2ccc(Cl)c(Cl)n2)cnc1C(=O)/N=c1\sc(C(F)(F)F)nn1C [Compound P45]
≥ 80%: percent effect (mortality or growth inhibition) at 200 ppm [1] | mortality at 200 ppm [2] | mortality at 200 ppm [3] | percent effect (mortality or growth inhibition) at 200 ppm [4] | percent control (mortality, anti-feedant effect or growth inhibition) at 12.5 ppm [5] | mortality at 200 ppm [6] | percent control (mortality, anti-feedant effect or growth inhibition) at 200 ppm [7]

CCS(=O)(=O)c1cc(-c2ncc(Cl)s2)cnc1C(=O)/N=c1\sc(C(F)(F)F)nn1C [Compound P57]
≥ 80%: percent effect (mortality or growth inhibition) at 200 ppm [1] | percent effect (mortality or growth inhibition) at 200 ppm [4] | mortality at 200 ppm [9] | percent control (mortality, anti-feedant effect or growth inhibition) at 200 ppm [7]

CCS(=O)(=O)c1cc(C2CC2)cnc1C(=O)/N=c1\sc(C(F)(F)F)nn1C [Compound P63]
≥ 80%: percent effect (mortality or growth inhibition) at 200 ppm [1] | mortality at 200 ppm [2] | mortality at 24 ppm [8] | percent effect (mortality or growth inhibition) at 200 ppm [4] | mortality at 200 ppm [6] | percent control (mortality, anti-feedant effect or growth inhibition) at 200 ppm [7]
